Values of other authors as cited in patent US20190070181A1, “FORMULATION OF TICAGRELOR OR PHARMACEUTICALLY ACCEPTABLE SALT THEREOF” (Jiangsu Hengrui Medicine Co., Ltd., priority 2017, published 2019).

Columns and labels:
[1] = tested on: platelet aggregation
[2] = not given; remark: listed apart in the source

SMILES | time the IPA effect can be maintained ([1]; 180 mg loading dose) | IPA maximum ([1]; 2-4 hours after 180 mg loading dose) | mean inhibition of platelet aggregation (IPA) ([1]; 0.5 hour after 180 mg loading dose) | solubility in water | average t1/2 ([2]; in vivo) | dose up to which the pharmacokinetics is linear ([2]; in vivo) | median tmax ([2]; oral administration) | average recovery of the radiation in feces ([2]; radiolabeled ticagrelor, feces) | average recovery of the radiation ([2]; radiolabeled ticagrelor, total) | average recovery of the radiation in urine ([2]; radiolabeled ticagrelor, urine)
CCCSc1nc(N[C@@H]2C[C@H]2c2ccc(F)c(F)c2)c2nnn([C@@H]3C[C@H](OCCO)[C@@H](O)[C@H]3O)c2n1 [ticagrelor, (1S,2S,3R,5S)-3-[7-{[(1R,2S)-2-(3,4-difluorophenyl)cyclopropyl]amino}-5-(propylthio)-3H-[1,2,3]-triazolo[4,5-d]pyrimidin-3-yl]-5-(2-hydroxyethoxy)cyclopentane-1,2-diol] | 2 to 8 h | 89% | 41% | almost insoluble in water | about 7 hours | up to 1260 mg | about 1.5 hours | 58% | about 84% | 26%
CCCSc1nc(N[C@@H]2C[C@H]2c2ccc(F)c(F)c2)c2nnn([C@@H]3C[C@H](O)[C@@H](O)[C@H]3O)c2n1 [AR-C124910XX] | – | – | – | – | about 9 hours | – | – | – | – | –
